{
  "source": "patent US10420734B2",
  "about": "“Method of treating cancer using selective estrogen receptor modulators” (Duke University, priority 2014, dated 2019)",
  "type_in_all_cases": "cell-based",
  "key": {"ESR1": {"molecular_target": "T1, ESR1 (Homo sapiens, UniProt P03372)", "T1 sequence (P03372 1-595)": "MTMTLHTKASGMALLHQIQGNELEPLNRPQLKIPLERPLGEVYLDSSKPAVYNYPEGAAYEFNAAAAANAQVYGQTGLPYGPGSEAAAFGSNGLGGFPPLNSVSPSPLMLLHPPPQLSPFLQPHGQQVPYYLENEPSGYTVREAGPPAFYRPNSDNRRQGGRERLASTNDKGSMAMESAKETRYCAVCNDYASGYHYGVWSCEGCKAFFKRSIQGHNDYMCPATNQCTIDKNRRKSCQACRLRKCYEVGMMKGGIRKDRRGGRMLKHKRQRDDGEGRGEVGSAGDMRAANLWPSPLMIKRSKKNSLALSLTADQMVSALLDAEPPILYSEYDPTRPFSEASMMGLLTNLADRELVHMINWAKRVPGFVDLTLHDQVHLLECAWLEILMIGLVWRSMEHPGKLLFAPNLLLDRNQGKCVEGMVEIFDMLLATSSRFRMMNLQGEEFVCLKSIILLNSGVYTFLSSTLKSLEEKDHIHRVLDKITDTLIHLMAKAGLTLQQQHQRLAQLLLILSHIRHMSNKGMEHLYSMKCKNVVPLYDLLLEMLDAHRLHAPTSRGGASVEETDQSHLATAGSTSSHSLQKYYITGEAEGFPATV", "assay": "Mammalian two-hybrid conformational profiling of ESR1 with peptide probes in SKBR3 cells", "parameters": "expressed in transfected cells; host or cells: SKBR3", "procedure": "Triplicate wells of SKBR3 cells were transfected (Lipofectin per manufacturer's instructions) with plasmids expressing ERα fused to VP16 together with Gal4DBD alone (control) or fused to ER interacting peptides noted on the horizontal axis. Cells were then treated with RAD1901 (1 nM-1 μM) or the indicated ER ligands (100 nM). Interaction of ERα with the Gal4DBD peptide constructs was detected through activation of a Gal4 responsive luciferase reporter construct and was normalized to detected β-galactosidase activity generated by a co-transfected constitutive expression vector. Ligand classes recognized by each probe are indicated below the graph.\nMammalian 2-hybrid analysis of VP16-ESR1 with conformation-selective peptide probes was performed essentially as previously described (Wardell et al., (2012) Mol Endocrinol 26 (7):1235-1248).\nThe expression of ESR1 target genes responsive to (FIG. 10A) agonists, (FIG. 10B) primarily SERMs, or (FIG. 10C) SERMs and agonists was analyzed as in FIG. 5. Relative changes of these and additional target genes designed to evaluate dose dependent response to RAD1901 are presented in FIG. 11. Significant target gene regulation (*p<0.05) as compared to the vehicle control was detected by 2 way ANOVA followed by Fisher's LSD (Graphpad Prism 6). […] Triplicate wells of SKBR3 cells were transfected with plasmids expressing ESR1 fused to VP16 together with Gal4DBD alone (control) or Gal4DBD fused to ESR1 interacting peptides noted on the horizontal axis. Cells were then treated with the indicated ESR1 ligands (10^−7 M unless otherwise indicated). Interaction of ESR1 with the Gal4DBD peptide constructs was detected through activation of a Gal4-responsive luciferase reporter construct and was normalized to detected β-galactosidase activity expressed in a constitutive manner using a second vector. Normalized response was expressed as fold increase over the detected level of interaction between Gal4DBD alone and ESR1-VP16 in the absence of ligand (Veh). For FIG. 10E, the effect of SERMs and SERDs (10^−6 M) on the proliferation of MCF7 cells in response to E2 (10^−9 M) or insulin (2×10^−9 M) was evaluated as in FIG. 5. Statistically similar treatments (2-way ANOVA followed by Bonferroni comparison) are indicated by letters. […] The expression of ESR1 target genes responsive to (A) agonists, (B) primarily SERMs, or (C) SERMs and agonists was analyzed using RT qPCR following RNA isolation. mRNA expression was normalized (ΔΔCT analysis) to the similarly detected 36B4 housekeeping. The profiles presented in dendogram format were analyzed with the Ward hierarchical clustering algorithm (JMP 11) using standardized data."}, "MCF7 cells": {"tested_on": "MCF7 cells", "assay": "E2-stimulated MCF7 cell proliferation assay (8 day, DNA fluorescence)", "conditions": "10^-9 M E2, ligand 10^-11-10^-6 M, 8 day assay", "procedure": "Assays evaluating the effects of SERDs and SERMs on cell proliferation were performed as described (Wardell et al., (2013) Clin Cancer Res 19 (9):2420-2431).\nThe ability of RAD1901 (FIG. 5A) to modulate the […] estradiol (E2) dependent transcriptional activity of the human estrogen receptor alpha (ESR1) and human estrogen receptor beta (ESR2) was assessed in transiently transfected SKBR3 cells using a synthetic reporter gene. […] For FIG. 5B, SKBR3 cells were plated in phenol red free media supplemented with charcoal stripped FBS (CFS) 24 hours prior to transfection with an ERE-luciferase reporter together with ESR1 or ESR2 expression vectors. 24 hours after transfection, cells were treated with E2 (10 nM) together with RAD1901 (10^−10-10^−6 M) for 24 hours prior to harvest and analysis of luciferase activity normalized to co-transfected β-galactosidase control. […] DNA content as assessed by fluorescence was measured as a surrogate for cell proliferation. The relative increase in DNA fluorescence was calculated by normalizing to baseline values detected in a duplicate plate of cells that was harvested on day 1 prior to the initial treatment. […] For FIG. 5F, expression of ESR1 target genes in tumors was analyzed essentially as in (C)."}, "ESR1 target genes": {"tested_on": "ESR1 target genes", "assay": "ESR1 target gene expression profile in MCF7 cells", "conditions": "24 hours", "procedure": "A recent extensive microarray analysis has identified “sentinel” subsets of ER-responsive genes that can differentiate between ER agonists, SERMs and SERDs. […] MCF7 breast cancer cells were treated 24 hours with RAD1901 (0-1 μM) in the presence or absence of 17β-estradiol (1 nM). RNA isolation and the analysis of the expression of target genes Anterior gradient protein 2 (AGR2) and KCNK6 was conducted as in Example 3.\nThe expression of ESR1 target genes responsive to (FIG. 10A) agonists, (FIG. 10B) primarily SERMs, or (FIG. 10C) SERMs and agonists was analyzed as in FIG. 5. […] Significant target gene regulation (*p<0.05) as compared to the vehicle control was detected by 2 way ANOVA followed by Fisher's LSD (Graphpad Prism 6). […] Interaction of ESR1 with the Gal4DBD peptide constructs was detected through activation of a Gal4-responsive luciferase reporter construct and was normalized to detected β-galactosidase activity expressed in a constitutive manner using a second vector. Normalized response was expressed as fold increase over the detected level of interaction between Gal4DBD alone and ESR1-VP16 in the absence of ligand (Veh). For FIG. 10E, the effect of SERMs and SERDs (10^−6 M) on the proliferation of MCF7 cells in response to E2 (10^−9 M) or insulin (2×10^−9 M) was evaluated as in FIG. 5. […]"}, "LTED MCF7 cells": {"tested_on": "LTED MCF7 cells", "assay": "LTED MCF7 cell proliferation assay", "conditions": "model of aromatase resistance, 10^-11-10^-6 M, 8 day assay"}},
  "note": "Entries after “also recorded” stand apart in the source; their conditions may differ.",
  "data": [
    {"smiles": "CCNCCc1ccc(CN(CC)c2cc(OC)ccc2[C@@H]2CCc3cc(O)ccc3C2)cc1", "note": "[RAD1901, (R)-6-{2-{ethyl[4-(2-ethylaminoethyl)benzyl]amino}-4-methoxyphenyl}-5,6,7,8-tetrahydronaphthalen-2-ol]", "values": [
      {"measurement": "ESR1 conformation / peptide interaction profile", "setting": "ESR1", "value": "induces a unique conformation of ERα; also recorded: completely distinct from any other known ligand"},
      {"measurement": "interaction of αII peptide (hinge region surface)", "setting": "ESR1", "value": "significant interaction"},
      {"measurement": "interaction with peptides reporting ESR1 structures adopted upon binding tamoxifen (aβV) or ICI (βI2)", "setting": "ESR1", "value": "No interaction was observed"},
      {"measurement": "interaction with peptides that report on agonist activity (ASC1 and PGC1)", "setting": "ESR1", "value": "decreased interaction"},
      {"measurement": "E2-dependent stimulation of cell proliferation", "setting": "MCF7 cells", "value": "inhibited"},
      {"measurement": "regulation of ER transactivation of target genes AGR2 and KCNK6", "setting": "ESR1 target genes; RAD1901 0-1 μM, presence or absence of 17β-estradiol 1 nM", "value": "dose dependent agonist/antagonist regulation"},
      {"measurement": "expression pattern of ESR1 target genes (agonist-, SERM-, SERM/agonist-responsive)", "setting": "ESR1 target genes; RAD1901 10^-9-10^-6 M", "value": "biphasic response"},
      {"measurement": "cell proliferation", "setting": "LTED MCF7 cells", "value": "inhibited cell proliferation"}
    ]}
  ]
}
